This is an account of results in patent publication US7977345B2, “c-MET modulators and method of use” (Exelixis, Inc., priority 2004, dated 2011).

Assay type in all cases: biochemical
Test [1] has as its target T1, human KDR kinase domain D807-V1356 (Homo sapiens, UniProt P35968).
T1 construct: baculovirus expressed human KDR kinase domain D807-V1356; made in house
Kind of test: KDR Luciferase-Coupled Chemiluminescent Kinase assay (LCCA). The following applies: 3 μM ATP, 1.6 μM poly-EY, 5 nM KDR; read-out: KDR inhibition IC50. Here is the method:
(§1) Kinase activity and compound inhibition are investigated using one or more of the three assay formats described below. The ATP concentrations for each assay are selected to be close to the Michaelis-Menten constant (KM) for each individual kinase. Dose-response experiments are performed at 10 different inhibitor concentrations in a 384-well plate format. The data are fitted to the following four-parameter equation: Y=Min+(Max−Min)/(1+(X/IC50)^H) where Y is the observed signal, X is the inhibitor concentration, Min is the background signal in the absence of enzyme (0% enzyme activity), Max is the signal in the absence of inhibitor (100% enzyme activity), IC50 is the inhibitor concentration at 50% enzyme inhibition and H represents the empirical Hill's slope to measure the cooperativity. Typically H is close to unity. c-Met Assay
KDR biochemical activity was assessed using a Luciferase-Coupled Chemiluminescent Kinase assay (LCCA) format. Kinase activity was measured as the percent ATP remaining following the kinase reaction. Remaining ATP was detected by luciferase-luciferin-coupled chemiluminescence. Specifically, the reaction was initiated by mixing test compounds, 3 μM ATP, 1.6 μM poly-EY and 5 nM KDR (baculovirus expressed human KDR kinase domain D807-V1356) in a 20 uL assay buffer (20 mM Tris-HCL pH7.5, 10 mM MgCl2, 0.01% Triton X-100, 1 mM DTT, 3 mM MnCl2). The mixture is incubated at ambient temperature for 4 hours after which 20 uL luciferase-luciferin mix is added and the chemiluminescent signal read using a Wallac Victor^2 reader. The luciferase-luciferin mix consists of 50 mM HEPES, pH 7.8, 8.5 ug/mL oxalic acid (pH 7.8), 5 (or 50) mM DTT, 0.4% Triton X-100, 0.25 mg/mL coenzyme A, 63 uM AMP, 28 ug/mL luciferin and 40,000 units of light/mL luciferase.

The target in test [2] is T2, human Flt-3 kinase domain R571-S993 (Homo sapiens, UniProt P36888).
T2 construct: baculovirus expressed human Flt-3 kinase domain R571-S993; made in house
T2 sequence (P36888 571-993): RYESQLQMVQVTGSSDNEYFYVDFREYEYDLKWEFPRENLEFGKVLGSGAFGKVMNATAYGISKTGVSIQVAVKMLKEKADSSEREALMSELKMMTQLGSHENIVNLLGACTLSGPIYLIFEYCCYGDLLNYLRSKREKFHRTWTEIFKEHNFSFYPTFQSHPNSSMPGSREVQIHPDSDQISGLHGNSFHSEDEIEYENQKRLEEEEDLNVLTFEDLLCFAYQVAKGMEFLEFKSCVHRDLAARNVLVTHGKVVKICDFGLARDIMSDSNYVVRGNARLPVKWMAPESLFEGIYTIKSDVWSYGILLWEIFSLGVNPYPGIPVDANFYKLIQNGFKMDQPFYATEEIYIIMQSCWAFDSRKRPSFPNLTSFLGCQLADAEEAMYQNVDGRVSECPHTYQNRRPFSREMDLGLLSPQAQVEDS
Kind of test: flt-3 Luciferase-Coupled Chemiluminescent Kinase assay (LCCA). The following applies: 5 μM ATP, 3 μM poly-EY, 5 nM Flt-3; read-out: flt-3 inhibition IC50. As for the experimental part: as §1
Biochemical activity for flt-3 was assessed using a Luciferase-Coupled Chemiluminescent Kinase assay (LCCA) format. Kinase activity was measured as the percent ATP remaining following the kinase reaction. Remaining ATP was detected by luciferase-luciferin-coupled chemiluminescence. Specifically, the reaction was initiated by mixing test compounds, 5 μM ATP, 3 μM poly-EY and 5 nM Flt-3 (baculovirus expressed human Flt-3 kinase domain R571-S993) in a 20 uL assay buffer (20 mM Tris-HCL pH7.5, 10 mM MgCl2, 0.01% Triton X-100, 1 mM DTT, 2 mM MnCl2). The mixture is incubated at ambient temperature for 3 hours after which 20 uL luciferase-luciferin mix is added and the chemiluminescent signal read using a Wallac Victor^2 reader. The luciferase-luciferin mix consists of 50 mM HEPES, pH 7.8, 8.5 ug/mL oxalic acid (pH 7.8), 5 (or 50) mM DTT, 0.4% Triton X-100, 0.25 mg/mL coenzyme A, 63 uM AMP, 28 ug/mL luciferin and 40,000 units of light/mL luciferase.

Test [3] deals with human c-Met kinase domain P948-S1343 (Homo sapiens, UniProt P08581). Kind of test: c-Met Luciferase-Coupled Chemiluminescent Kinase assay (LCCA). The following applies: 1 μM ATP, 1 μM poly-EY, 10 nM c-Met; read-out: c-Met inhibition IC50. Here is the method: as §1
c-Met biochemical activity was assessed using a Luciferase-Coupled Chemiluminescent Kinase assay (LCCA) format as described above. Again, kinase activity was measured as the percent ATP remaining following the kinase reaction. Remaining ATP was detected by luciferase-luciferin-coupled chemiluminescence. Specifically, the reaction was initiated by mixing test compounds, 1 μM ATP, 1 μM poly-EY and 10 nM c-Met (baculovirus expressed human c-Met kinase domain P948-S1343) in a 20 uL assay buffer (20 mM Tris-HCL pH7.5, 10 mM MgCl2, 0.02% Triton X-100, 100 mM DTT, 2 mM MnCl2). The mixture is incubated at ambient temperature for 2 hours after which 20 uL luciferase-luciferin mix is added and the chemiluminescent signal read using a Wallac Victor^2 reader. The luciferase-luciferin mix consists of 50 mM HEPES, pH 7.8, 8.5 ug/mL oxalic acid (pH 7.8), 5 (or 50) mM DTT, 0.4% Triton X-100, 0.25 mg/mL coenzyme A, 63 uM AMP, 28 ug/mL luciferin and 40,000 units of light/mL luciferase.

Chain of human c-Met kinase domain P948-S1343 (P08581 1011-1367 limits assumed): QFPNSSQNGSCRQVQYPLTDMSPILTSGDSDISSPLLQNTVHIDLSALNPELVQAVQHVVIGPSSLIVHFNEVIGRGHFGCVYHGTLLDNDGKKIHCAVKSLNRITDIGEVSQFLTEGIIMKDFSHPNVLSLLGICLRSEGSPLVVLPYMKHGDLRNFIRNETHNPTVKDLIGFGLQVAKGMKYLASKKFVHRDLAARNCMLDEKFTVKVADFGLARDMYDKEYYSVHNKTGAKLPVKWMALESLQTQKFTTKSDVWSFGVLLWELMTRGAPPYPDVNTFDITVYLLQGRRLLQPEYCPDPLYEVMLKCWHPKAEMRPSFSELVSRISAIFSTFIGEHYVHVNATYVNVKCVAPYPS
T1 sequence (P35968 807-1356): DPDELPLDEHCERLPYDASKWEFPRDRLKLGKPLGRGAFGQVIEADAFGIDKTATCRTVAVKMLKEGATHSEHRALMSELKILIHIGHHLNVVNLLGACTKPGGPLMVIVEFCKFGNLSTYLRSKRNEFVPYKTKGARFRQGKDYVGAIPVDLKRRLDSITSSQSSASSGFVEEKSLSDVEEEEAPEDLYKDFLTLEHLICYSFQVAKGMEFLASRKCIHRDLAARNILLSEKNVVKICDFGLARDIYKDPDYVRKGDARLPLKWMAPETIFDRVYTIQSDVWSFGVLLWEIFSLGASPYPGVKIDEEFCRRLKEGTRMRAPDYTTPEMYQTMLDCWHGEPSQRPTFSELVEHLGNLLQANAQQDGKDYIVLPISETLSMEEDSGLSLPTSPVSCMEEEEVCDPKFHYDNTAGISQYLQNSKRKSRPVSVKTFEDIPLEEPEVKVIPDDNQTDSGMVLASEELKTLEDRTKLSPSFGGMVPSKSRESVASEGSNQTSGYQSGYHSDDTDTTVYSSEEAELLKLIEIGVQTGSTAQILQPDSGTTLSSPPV

As to `O=C(CC(=O)Nc1ccc(Oc2ncnc3[nH]ccc23)c(F)c1)Nc1ccc(F)cc1` [Entry 1, N-(4-fluorophenyl)-N′-[3-fluoro-4-(7H-pyrrolo[2,3-d]pyrimidin-4-yloxy)phenyl]propanediamide], the IC50 is 50 to 500 nM in test [1], less than 50 nM in test [2] and 50 to 500 nM in test [3].
For the molecule `O=C(Nc1ccc(F)cc1)C1(C(=O)Nc2ccc(Oc3ncnc4[nH]ccc34)c(F)c2)CC1` [Entry 2, N-(4-fluorophenyl)-N′-[3-fluoro-4-(7H-pyrrolo[2,3-d]pyrimidin-4-yloxy)phenyl]cyclopropane-1,1-dicarboxamide], the concentration for half-maximal inhibition (IC50) in test [1] is less than 50 nM; in test [2] it was 50 to 500 nM; in test [3], less than 50 nM.
Take `O=C(Nc1ccc(F)cc1)C1(C(=O)Nc2ccc(Oc3ncnc4c3ncn4C3CCCCO3)cc2)CC1` (stereo not shown) [Entry 8, N-(4-fluorophenyl)-N′-(4-{[9-(tetrahydro-2H-pyran-2-yl)-9H-purin-6-yl]oxy}phenyl)cyclopropane-1,1-dicarboxamide]: the IC50 in test [1] and in test [3] was more than 500 nM throughout.
Consider `O=C(Cc1ccccc1)NC(=S)Nc1ccc(Oc2ncnc3c2cnn3C2CCCCO2)cc1` (stereo not shown) [Entry 5, 2-phenyl-N-{[(4-{[1-(tetrahydro-2H-pyran-2-yl)-1H-pyrazolo[3,4-d]pyrimidin-4-yl]oxy}phenyl)amino]carbonothioyl}acetamide], for which the 50% inhibitory concentration (IC50) in test [1] and in test [3] was more than 500 nM in each case.
Regarding `O=C(NCCN1CCOCC1)c1cc2c(Oc3ccc(NC(=O)C4(C(=O)Nc5ccc(F)cc5)CC4)cc3F)ncnc2[nH]1` [Entry 12, N-{3-fluoro-4-[(6-{[(2-morpholin-4-ylethyl)amino]carbonyl}-7H-pyrrolo[2,3-d]pyrimidin-4-yl)oxy]phenyl}-N′-(4-fluorophenyl)cyclopropane-1,1-dicarboxamide], the IC50 in test [1], in test [2] and in test [3] was less than 50 nM throughout.
Turning to `O=C(Cc1ccccc1)NC(=S)Nc1ccc(Oc2ncnc3c2ncn3C2CCCCO2)cc1` (stereo not shown) [Entry 9, 2-phenyl-N-{[(4-{[9-(tetrahydro-2H-pyran-2-yl)-9H-purin-6-yl]oxy}phenyl)amino]carbonothioyl}acetamide], the IC50 in test [1] and in test [3] was more than 500 nM each time.
As to `O=C(Cc1ccccc1)NC(=S)Nc1ccc(Oc2ncnc3[nH]ccc23)c(F)c1` [Entry 3, N-({[3-fluoro-4-(7H-pyrrolo[2,3-d]pyrimidin-4-yloxy)phenyl]amino}carbonothioyl)-2-phenylacetamide], the 50% inhibitory concentration (IC50) was 50 to 500 nM in test [1], more than 500 nM in test [2] and less than 50 nM in test [3].
Regarding `O=C(Nc1ccc(F)cc1)C1(C(=O)Nc2ccc(Oc3ncnc4[nH]ncc34)cc2)CC1` [Entry 6, N-(4-fluorophenyl)-N′-[4-(1H-pyrazolo[3,4-d]pyrimidin-4-yloxy)phenyl]cyclopropane-1,1-dicarboxamide], the results for the IC50 in test [1] and in test [3] were 50 to 500 nM and more than 500 nM, respectively.
For `O=C(Nc1ccc(F)cc1)C1(C(=O)Nc2ccc(Oc3ncnc4c3cnn4C3CCCCO3)cc2)CC1` (stereo not shown) [Entry 4, N-(4-fluorophenyl)-N′-(4-{[1-(tetrahydro-2H-pyran-2-yl)-1H-pyrazolo[3,4-d]pyrimidin-4-yl]oxy}phenyl)cyclopropane-1,1-dicarboxamide], the half-inhibitory concentration (IC50) in test [1] and in test [3] was more than 500 nM throughout.
For the molecule `O=C(Cc1ccccc1)NC(=S)Nc1ccc(Oc2ncnc3[nH]ncc23)cc1` [Entry 7, 2-phenyl-N-({[4-(1H-pyrazolo[3,4-d]pyrimidin-4-yloxy)phenyl]amino}carbonothioyl)acetamide], the half-inhibitory concentration (IC50) in test [1] and in test [3] was more than 500 nM each time.
Take `O=C(Nc1ccc(F)cc1)C1(C(=O)Nc2ccc(Oc3ncnc4[nH]cnc34)cc2)CC1` [Entry 10, N-(4-fluorophenyl)-N′-[4-(9H-purin-6-yloxy)phenyl]cyclopropane-1,1-dicarboxamide]: the IC50 in test [1] and in test [3] was more than 500 nM in each case.
For the molecule `O=C(Cc1ccccc1)NC(=S)Nc1ccc(Oc2ncnc3[nH]cnc23)cc1` [Entry 11, 2-phenyl-N-({[4-(9H-purin-6-yloxy)phenyl]amino}carbonothioyl)acetamide], the concentration for half-maximal inhibition (IC50) in test [1] and in test [3] was more than 500 nM throughout.

A word on the IC50: it is the concentration that gives 50% inhibition.
